Earlier results in patent publication US11679093B2, “2-naphthimidamides, analogues thereof, and methods of treatment using same” (priority 2018, dated 2023).

Tested on: Influenza A virus (IAV)
Conditions: fully differentiated mucociliated bronchiolar epithelium isolated from multiple human donors

N=C(N)Nc1ccc(C(=O)Oc2ccc3cc(C(=N)N)ccc3c2)cc1 [Nafamostat, 6-carbamimidoylnaphthalen-2-yl 4-guanidinobenzoate]
antiviral activity: exhibit antiviral activity
